Test results reported in PMC9783868, “Indoline-5-Sulfonamides: A Role of the Core in Inhibition of Cancer-Related Carbonic Anhydrases, Antiproliferative Activity and Circumventing of Multidrug Resistance” (Pharmaceuticals, 2022).

Experiments:
hCA XII = target: T1, hCA XII (Homo sapiens, UniProt O43570); test: CA inhibition, stopped-flow CO2 hydration assay; type: biochemical; conditions: stopped-flow technique; mean from three assays
T1 construct: made in house
Method: (§1) The CO2 hydration activity of the four hCA isoforms was monitored using an Applied Photophysics stopped-flow instrument. Phenol red (at a concentration of 0.2 mM) was used as an indicator, working at the absorbance maximum of 557 nm, with 10 mM HEPES (pH 7.4) as a buffer, and 20 mM NaClO4 (for maintaining constant the ionic strength), following the initial rates of the CA-catalyzed CO2 hydration reaction for a period of 10–100 s. To determine the kinetic parameters by Lineweaver-Burk plots and the inhibition constants, a concentration of CO2 between 1.7 to 17 mM was used. At least six measurements of the original 5–10% reaction were used to assess the initial velocity for each inhibitor. The uncatalyzed rates were determined and detracted from the total observed rates. Stock inhibitor solutions (10–100 mM) were prepared in distilled-deionized water, and dilutions up to 0.1 nM were done with the buffer test. […] The inhibition constants were obtained by non-linear least-squares methods using PRISM 6 and the Cheng-Prusoff equation, as reported earlier, and represent the mean from at least three different determinations.

hCA II = target: T2, hCA II (Homo sapiens, UniProt P00918); test: CA inhibition, stopped-flow CO2 hydration assay; type: biochemical; conditions: stopped-flow technique; mean from three assays
T2 construct: made in house
Method: as §1

hCA I = target: T3, hCA I (Homo sapiens, UniProt P00915); test: CA inhibition, stopped-flow CO2 hydration assay; type: biochemical; conditions: stopped-flow technique; mean from three assays
T3 construct: made in house
T3 sequence (P00915 whole entry): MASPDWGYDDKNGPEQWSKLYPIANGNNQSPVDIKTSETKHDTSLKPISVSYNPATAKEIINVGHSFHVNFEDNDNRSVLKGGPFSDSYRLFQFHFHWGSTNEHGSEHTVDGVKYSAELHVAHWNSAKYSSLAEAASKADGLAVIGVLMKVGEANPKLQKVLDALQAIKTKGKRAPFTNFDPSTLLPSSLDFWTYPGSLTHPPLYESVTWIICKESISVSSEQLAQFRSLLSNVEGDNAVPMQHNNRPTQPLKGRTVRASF
Method: as §1

hCA IX = target: T4, hCA IX (Homo sapiens, UniProt Q16790); test: CA inhibition, stopped-flow CO2 hydration assay; type: biochemical
T4 construct: made in house
Method: as §1

A431 skin cancer cells = test: Antiproliferative activity, MTT test; type: cell-based, human; conditions: 72 h, hypoxic conditions
Excerpt: To evaluate the influence of CA inhibition on the antiproliferative activity, we selected five compounds 4b, f, m, n and 10 with different inhibition profiles against CA IX for in-depth testing on cancer cells with increased CA IX expression. The database www.proteinatlas.org (accessed on 13 October 2022) contains data on gene expression in various cell lines. According to the data obtained from this database, A431 cells express CA IX at a very high level, which distinguishes them from human cell lines belonging to other tissues [https://www.proteinatlas.org/ENSG00000107159-CA9/cell+line (accessed on 13 October 2022)]. A431 cells are skin cancer cells, and their growth has already been intensely analyzed in hypoxia. […] Moreover, Ren and colleagues described that hypoxia modulates cellular pathways in A431 cells, which are associated with radioresistance and enhanced migration. Given the observations described above, we were expecting to reveal the high antiproliferative activity of the selected compounds against skin cancer cells. […] In hypoxia, the activity of tested compounds was increased, but the 50% inhibition of growth was never achieved.
The MCF7 human breast, A431 human skin cancer cells and K562 (ATCC CCL-243) chronic myelogenous leukemia cells were obtained from the ATCC collection. The MDR subline K562/4 [77] […] The growth inhibitory activity of compounds was assessed by the MTT test based on the metabolism of the MTT reagent (3-[4,5-dimethylthiazol-2-yl]-2,5-diphenyltetrazolium bromide) (Applichem) in living cells, with modifications as described previously in [49]. […] Culture plates were gently shaken, and the absorbance was measured at 571 nm with a reference wavelength of 630 nm on a MultiScan reader (ThermoFisher, Waltham, MA, USA). The viability of the cells was expressed as a percentage of the control. Dose-response curves were analyzed by regression analysis using sigmoid curves (Log(concentration) vs. normalized absorbance).

K562/4 cells = test: Reversal of chemoresistance to Dox, MTT test; type: cell-based, human
Excerpt: Earlier, Kopecka and colleagues have shown that CA XII can interact with P-gp and influence its activity. Subsequently, silencing or inhibition of CA XII by chemical agents may restore the sensitivity to Dox of resistant K562 and other tumor cells. Given the potent inhibition of 4f against CA XII and the activity of 4e against K562, we examined their ability to reverse the chemoresistance of K562/4 with P-gp to Dox.
The MCF7 human breast, A431 human skin cancer cells and K562 (ATCC CCL-243) chronic myelogenous leukemia cells were obtained from the ATCC collection. The MDR subline K562/4 [77] (kind gift of Dr. Alexander Shtil, Blokhin N.N. National Medical Research Center of Oncology) was obtained by stepwise selection of K562 cells for survival under continuous exposure to Dox. This subline expresses the MDR1 gene and functional P-gp and is characterized by a high resistance index for Dox. The MCF7 and A431 cells were cultured in standard 4.5 g/L glucose DMEM medium (Gibco) supplemented with 10% FCS (HyClone), 2 mM L-glutamine, 50 U/mL penicillin, 50 µg/mL streptomycin (PanEco), 100 µg/mL sodium pyruvate (Santa Cruz) at 37 °C, 5% CO2 and 80–85% humidity in NuAire incubator. Suspension myelogenous leukemia cells (K562, K562/4) were propagated in RPMI-1640 (PanEco) with 5% FCS (HyClone), 2 mM L-glutamine, 100 U/mL penicillin, and 100 µg/mL streptomycin at 37 °C, 5% CO2, and 80–85% humidity in Binder incubator. Cells in the logarithmic phase of growth were used in the experiments. The growth inhibitory activity of compounds was assessed by the MTT test based on the metabolism of the MTT reagent (3-[4,5-dimethylthiazol-2-yl]-2,5-diphenyltetrazolium bromide) (Applichem) in living cells, with modifications as described previously in [49]. Compounds at different concentrations in 100 μL of the appropriate medium were added, and the cells were grown for 72 h. The hypoxia (1% O2) conditions were simulated in Binder multigas incubator, as described in [49]. After incubation with compounds, the medium was removed, the MTT reagent that was dissolved in the medium was added to the final concentration of 0.2 mg/mL to each well, and the incubation was performed for 2 h. Then the cell supernatants were removed, and purple formazan crystals were dissolved in 100% DMSO (350 μL per well). Culture plates were gently shaken, and the absorbance was measured at 571 nm with a reference wavelength of 630 nm on a MultiScan reader (ThermoFisher, Waltham, MA, USA). The viability of the cells was expressed as a percentage of the control. Dose-response curves were analyzed by regression analysis using sigmoid curves (Log(concentration) vs. normalized absorbance).
Figure 6 Susceptibility of resistant K562/4 line to combinations of Dox (25 µM) with indoline-5-sulfonamides 4e and 4f. […]

T1 sequence (O43570 25-354): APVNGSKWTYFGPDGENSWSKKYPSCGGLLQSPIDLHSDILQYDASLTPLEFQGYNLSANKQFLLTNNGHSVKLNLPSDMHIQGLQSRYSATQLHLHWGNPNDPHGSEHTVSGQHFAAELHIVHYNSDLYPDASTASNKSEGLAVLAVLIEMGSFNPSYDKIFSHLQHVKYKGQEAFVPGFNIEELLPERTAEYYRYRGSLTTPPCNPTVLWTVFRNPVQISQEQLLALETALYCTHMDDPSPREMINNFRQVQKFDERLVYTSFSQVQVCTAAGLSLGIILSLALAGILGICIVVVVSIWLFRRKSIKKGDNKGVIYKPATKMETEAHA

NS(=O)(=O)c1ccc2c(c1)CCN2C(=O)c1cccc(Cl)c1 [Compound 4f, 1-(3-Chlorobenzoyl)indoline-5-sulfonamide]
Ki (hCA XII): 112 nM | Ki (hCA II): 31.3 nM | Ki (hCA I): 304 nM | fold higher activity against CA IX compared with 4e (hCA IX; in vitro KI, 4f vs 4e): ~10 fold | Ki (hCA IX; stopped-flow technique, mean from three assays): 141 nM | inhibition of growth of A431 cells, hypoxia (A431 skin cancer cells): 44% | effect of combination with Dox on viable K562/4 cells (K562/4 cells; combination with Dox (25 µM)): decline of viable K562/4 cells | cytotoxic activity against MDR subline K562/4 as monoagent (K562/4 cells; monoagent): low cytotoxic activity | melting point: > 250 °C
